Data: patent publication US7531671B2, “Dihydroisoindolones as allosteric modulators of glucokinase” (Janssen Pharmaceutica N.V., priority 2005, dated 2009)
Values joined by “and” are separate entries in the source; they are usually repeats but may differ in a detail not shown here. Identical values can stand only once.

Molecular target: T1, human pancreas Glucokinase (GK) (Homo sapiens, UniProt P35557)
T1 construct: (His)6; made in house; host or cells: Escherichia coli
T1 sequence (P35557 1-465): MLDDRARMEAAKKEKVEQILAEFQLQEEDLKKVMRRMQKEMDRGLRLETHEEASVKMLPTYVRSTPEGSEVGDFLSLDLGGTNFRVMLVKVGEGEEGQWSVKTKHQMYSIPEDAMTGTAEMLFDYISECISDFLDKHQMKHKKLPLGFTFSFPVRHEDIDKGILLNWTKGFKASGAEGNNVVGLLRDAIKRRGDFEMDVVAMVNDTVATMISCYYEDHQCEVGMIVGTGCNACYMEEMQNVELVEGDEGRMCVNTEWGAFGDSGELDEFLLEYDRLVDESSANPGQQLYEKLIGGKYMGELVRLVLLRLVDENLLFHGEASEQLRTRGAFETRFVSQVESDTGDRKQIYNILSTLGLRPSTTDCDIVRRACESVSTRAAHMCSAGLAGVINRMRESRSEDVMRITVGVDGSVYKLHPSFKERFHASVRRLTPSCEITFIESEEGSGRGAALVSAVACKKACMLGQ
Experiment: Glucokinase enzyme assay, Pancreas GK data
Type: biochemical
Conditions: for activation at 50 µM: compound 50 μM, percentage increase in GK activity above vehicle control, 12 mM glucose; for EC50: concentration producing 50% activation above vehicle control; for EC100%: concentration producing 100% activation above vehicle control
Description: An enzymatic Glucokinase (GK) assay using purified recombinant human liver/pancreas enzyme was used to evaluate the effects of potential small molecule modulators.
In this assay, GK catalyzes glucose phosphorylation in the presence of ATP. The product of this reaction, glucose-6-phosphate, was then oxidized by an excess of glucose-6-phosphate dehydrogenase to produce gluconate-6-phosphate with concomitant reduction of nicotinamide adenine dinucleotide (NAD). […] Human GK (Liver/Pancreas) was expressed in Escherichia coli as a (His) 6-tagged fusion protein and was purified by metal chelate affinity chromatography. The assay was performed in a final incubation volume of 80 μl in a 96-well clear low UV absorption plates. The incubation mixture consisted of 25 mM HEPES, 2 mM MgSO4, 1 mM dithiothreotol (DTT), 1 mg/ml bovine serum albumin (BSA), 1 mM ATP, 1 mM NAD, and 12 mM glucose, 10 units per ml glucose-6-phosphate dehydrogenase, and +/−300 ng per ml GK. For determination of the affinity (Km) and Vmax, different concentrations of glucose ranging from 0.5 mM to 40 mM were used in the assay; see Grimsby, J., Sarabu, R.; Grippo, J. F.; et. al. Science 2003, 301, 370-373. Production of reduced NAD (Nicotinamide Adenine Dinucleotide) was measured as changes in absorption at 340 nm in 96-well plate reader (Envision model # 2101 Multilabel Plate reader). % Activation @ 50 μM was calculated as the percentage increase in GK activity above the vehicle control with the effective concentration of the compound being 50 μM. EC50% (μM) was calculated as the effective concentration of the compound that produces 50% activation above the vehicle control, and EC100% (μM) was calculated as the effective concentration of the compound that produces 100% activation above the vehicle control.

Compound | activation at 50 µM [%] | EC50 | EC100%
Cc1ccc2c(c1)C(OCC(=O)Nc1cnccn1)N(Cc1ccccc1)C2=O (stereo not shown) [Compound 58, 2-(2-Benzyl-6-methyl-3-oxo-2,3-dihydro-1H-isoindol-1-yloxy)-N-pyrazin-2-yl-acetamide] | 70 | 27000 nM | –
Cc1ccc2c(c1)C(OCC(=O)Nc1ccccn1)N(Cc1ccccc1)C2=O (stereo not shown) [Compound 61, 2-(2-Benzyl-6-methyl-3-oxo-2,3-dihydro-1H-isoindol-1-yloxy)-N-pyridin-2-yl-acetamide] | 8.4 | 26000 nM | –
O=C(CSC1c2ccccc2C(=O)N1Cc1ccc2sccc2c1)Nc1ccccn1 (stereo not shown) [Compound 44, 2-(2-Benzo[b]thiophen-5-ylmethyl-3-oxo-2,3-dihydro-1H-isoindol-1-ylsulfanyl)-N-pyridin-2-yl-acetamide] | 116 | 890 nM | 5.9 µM
O=C(CSC1c2ccccc2C(=O)N1Cc1ccc(-n2cccn2)cc1)Nc1ccccn1 (stereo not shown) [Compound 47, 2-[3-Oxo-2-(4-pyrazol-1-yl-benzyl)-2,3-dihydro-1H-isoindol-1-ylsulfanyl]-N-pyridin-2-yl-acetamide] | 106 | 800 nM | –
COc1cc(CN2C(=O)c3ccccc3C2SCC(=O)Nc2ccccn2)cc(OC)c1OC (stereo not shown) [Compound 39, 2-[3-Oxo-2-(3,4,5-trimethoxy-benzyl)-2,3-dihydro-1H-isoindol-1-ylsulfanyl]-N-pyridin-2-yl-acetamide] | 193 | 1400 nM | 5.3 µM
O=C(CSC1c2ccccc2C(=O)N1Cc1ccc(F)cc1)Nc1ccc(C(=O)O)cn1 (stereo not shown) [Compound 54, 6-{2-[2-(4-Fluorobenzyl)-3-oxo-2,3-dihydro-1H-isoindol-1-ylsulfanyl]-acetylamino}-nicotinic acid] | 358 | 1100 nM | 6.1 µM
O=C(CSC1c2ccccc2C(=O)N1Cc1ccc2c(c1)OCCO2)Nc1ccccn1 (stereo not shown) [Compound 38, 2-[2-(2,3-Dihydro-benzo[1,4]dioxin-6-ylmethyl)-3-oxo-2,3-dihydro-1H-isoindol-1-ylsulfanyl]-N-pyridin-2-yl-acetamide] | 201 | 1000 nM | 3.8 µM
O=C(CSC1c2ccccc2C(=O)N1Cc1ccc(N2CCCC2=O)cc1)Nc1ccccn1 (stereo not shown) [Compound 40, 2-{3-Oxo-2-[4-(2-oxo-pyrrolidin-1-yl)-benzyl]-2,3-dihydro-1H-isoindol-1-ylsulfanyl}-N-pyridin-2-yl-acetamide] | 109 | 2100 nM | 16.1 µM
Cc1[nH]c2ccc(CN3C(=O)c4ccccc4C3SCC(=O)Nc3ccccn3)cc2c1C (stereo not shown) [Compound 45, 2-[2-(2,3-Dimethyl-1H-indol-5-ylmethyl)-3-oxo-2,3-dihydro-1H-isoindol-1-ylsulfanyl]-N-pyridin-2-yl-acetamide] | 132 | 380 nM | 2 µM
COc1ccc(CN2C(=O)c3ccccc3C2SCC(=O)Nc2ccccn2)cc1 (stereo not shown) [Compound 49, 2-[2-(4-Methoxybenzyl)-3-oxo-2,3-dihydro-1H-isoindol-1-ylsulfanyl]-N-pyridin-2-yl-acetamide] | 250 | 210 nM | 0.86 µM
COc1ccc(CN2C(=O)c3ccccc3C2SCC(=O)Nc2ccc(C(=O)O)cn2)cc1 (stereo not shown) [Compound 55, 6-{2-[2-(4-Methoxybenzyl)-3-oxo-2,3-dihydro-1H-isoindol-1-ylsulfanyl]-acetylamino}-nicotinic acid] | 246 | 1350 nM | 3.4 µM
COC(=O)c1ccc(NC(=O)COC2c3cc(C)ccc3C(=O)N2Cc2ccccc2)nc1 (stereo not shown) [Compound 59] | 127 | 3300 nM | 20.58 µM
O=C(CSC1c2ccccc2C(=O)N1Cc1ccc(-n2cccc2)cc1)Nc1ccccn1 (stereo not shown) [Compound 46, 2-[3-Oxo-2-(4-pyrrol-1-yl-benzyl)-2,3-dihydro-1H-isoindol-1-ylsulfanyl]-N-pyridin-2-yl-acetamide] | 106 | 800 nM | 4.8 µM
O=C(CSC1c2ccccc2C(=O)N1Cc1ccc2c(c1)OCO2)Nc1ccccn1 (stereo not shown) [Compound 41, 2-(2-Benzo[1,3]dioxol-5-ylmethyl-3-oxo-2,3-dihydro-1H-isoindol-1-ylsulfanyl)-N-pyridin-2-yl-acetamide] | 152 | 2800 nM | 10 µM
O=C(CSC1c2ccccc2C(=O)N1Cc1cccc2ccccc12)Nc1ccccn1 (stereo not shown) [Compound 43, 2-(2-Naphthalen-1-ylmethyl-3-oxo-2,3-dihydro-1H-isoindol-1-ylsulfanyl)-N-pyridin-2-yl-acetamide] | 112 | 4000 nM | 7.1 µM
COc1ccc(CN2C(=O)c3ccccc3C2SCC(=O)Nc2ccc(C(=O)O)cn2)cc1OC (stereo not shown) [Compound 56, 6-{2-[2-(3,4-Dimethoxybenzyl)-3-oxo-2,3-dihydro-1H-isoindol-1-ylsulfanyl]-acetylamino}-nicotinic acid] | 219 | 850 nM | 2.7 µM
COc1ccc(CN2C(=O)c3cccc(F)c3C2SCC(=O)Nc2ccccn2)cc1OC (stereo not shown) [Compound 52, 2-[2-(3,4-Dimethoxybenzyl)-7-fluoro-3-oxo-2,3-dihydro-1H-isoindol-1-ylsulfanyl]-N-pyridin-2-yl-acetamide] | – | – | 0.056 µM and 0.066 µM
CCCCN1C(=O)c2ccccc2C1OCC(=O)Nc1nccs1 (stereo not shown) [Compound 53, 2-(2-Butyl-3-oxo-2,3-dihydro-1H-isoindol-1-yloxy)-N-thiazol-2-yl-acetamide] | 101 | 18300 nM | –
O=C(CSC1c2ccccc2C(=O)N1Cc1ccc(OC(F)(F)F)cc1)Nc1ccccn1 (stereo not shown) [Compound 48, 2-[3-Oxo-2-(4-trifluoromethoxybenzyl)-2,3-dihydro-1H-isoindol-1-ylsulfanyl]-N-pyridin-2-yl-acetamide] | 174 | 1600 nM | 6.9 µM
CN(C)c1ccc(CN2C(=O)c3cccc(F)c3C2SCC(=O)Nc2ccccn2)cc1 (stereo not shown) [Compound 51, 2-[2-(4-Dimethylaminobenzyl)-7-fluoro-3-oxo-2,3-dihydro-1H-isoindol-1-ylsulfanyl]-N-pyridin-2-yl-acetamide] | 161 | 360 nM | 1.7 µM
COc1ccc(CN2C(=O)c3c(F)ccc(F)c3C2SCC(=O)Nc2ccc(C(=O)O)cn2)cc1OC (stereo not shown) [Compound 57, 6-{2-[2-(3,4-Dimethoxybenzyl)-4,7-difluoro-3-oxo-2,3-dihydro-1H-isoindol-1-ylsulfanyl]-acetylamino}-nicotinic acid] | 258 | 130 nM | 0.4 µM
COc1ccc(CN2C(=O)c3ccccc3C2SCC(=O)Nc2ccccn2)cc1OC (stereo not shown) [Compound 42, 2-[2-(3,4-Dimethoxybenzyl)-3-oxo-2,3-dihydro-1H-isoindol-1-ylsulfanyl]-N-pyridin-2-yl-acetamide] | – | 540 nM and 780 nM | 1.6 µM and 2.4 µM
Cc1ccc2c(c1)C(OCC(=O)Nc1nccs1)N(Cc1ccccc1)C2=O (stereo not shown) [Compound 60, 2-(2-Benzyl-6-methyl-3-oxo-2,3-dihydro-1H-isoindol-1-yloxy)-N-thiazol-2-yl-acetamide] | 102 | 7600 nM | –
